Test results from patent US5314999A, “Derivatives of basic polyene macrolides and their preparation” (Laboratoires Mayoly-Spindler, priority 1989, dated 1994).
≈ marks a conversion by molar mass, not a printed value. Where two headings read alike, the source gives them in different places.

Legend:
Aspergillus flavus = experiment: Diffusion method in agar-agar medium (Sabouraud agar-agar); format: cell-based; details: Sabouraud agar-agar, disc diameter 1 cm, 0.1 ml
Description: (§1) A.2 : Study of the antibiotic efficiency of amphotericine B derivatives in agar-agar medium against Aspergillus
(§2) The antibiotic activity was tested by the diffusion method in agar-agar medium (Sabouraud agar-agar).
(§3) The efficiency of each molecule was determined by the size of the growth-inhibiting zone around a WHATMAN 3M paper disc impregnated with the antibiotic substance of a given concentration.
(§4) A suspension of Aspergillus spores in a broth was prepared, 0.2 ml of this suspension was used to inoculate at its surface an agar-agar medium which was solidified in such a manner that a homogeneous growth layer was obtained. After spreading, the WHATMAN 3M paper discs (diameter: 1 cm) were placed on the surface of the agar-agar, and then impregnated with 0.1 ml of the antibiotic substance at different concentrations.

Aspergillus fumigatus = experiment: as above; format: cell-based; details: Sabouraud agar-agar, disc diameter 1 cm, 0.1 ml
Description: as §1, §2, §3, §4

X 63 (mice lymphoma B) = experiment: Toxicity on nucleated cells, X 63 mice lymphoma B; format: cell-based; details: 1 hour 30, trypan blue, 90 min, read-out: LD 50 (concentration leading to a mortality of 50%)
red corpuscles [1] = experiment: Toxicity on red corpuscles (lysis), mice; format: cell-based; details: 37° C., 1 hour 30, 90 min, 90 min, read-out: LD 50 (dose which leads to lysis in 50% of the erythrocytes)
Description: (§5) B.1: Study of the toxicity on red corpuscles
(§6) All the solutions of the AmB derivatives according to the invention were prepared immediately before use by diluting 4 mg of substance in 100 μl of 5% glucose solution, and then, after 15 minutes protected from light, 100 μl of sterile distilled water are added, and the mixture is made up to stock solutions of 4 mg/ml with a 5% glucose solution. For comparative study of the effects of AmB, 4 mg of FUNGIZONE are diluted with 1 ml of 5% glucose.
(§7) The cells are prepared by placing 1 ml of a peripheral blood sample into a tube together with Ficollhypaque to remove the lymphocytes, and then centrifuging the mixture at 2000 rpm for 20 minutes. The remaining red corpuscles are recovered, washed once with 0.9% NaCl and then twice with 150 Mm KCl, 0.5 Mm tris-HCl, pH 7.4.
(§8) A 1.25% suspension is then prepared with 150 mM KCl solution, 0.5 mM tris-HCl, pH 7.4, and 150 μl thereof are distributed in wells along with 50 μl of each of the dilutions of the derivatives, plus a control well (5% glucose solution).
(§9) The cells are then incubated at 37° C. in a steam cabinet for 1 hour 30.
(§10) To evaluate the cell lysis, haemoglobin is essayed by removing 100 μl of the supernatant in each well and diluting the sample with 1 ml of distilled water.
(§11) The haemoglobin concentration is calculated by measuring the optical density at 540 nm and taking into account the absorption of the derivatives of amphotericine B.
(§12) LD 50 is the dose which leads to lysis in 50% of the erythrocytes (a control of 100% lysis is obtained with distilled water, and reference lysis of 0% is obtained with the 5% glucose solution).

[2] = Toxicity on nucleated cells, DAUDI human lymphoma B; format: cell-based; details: human, daudi lymphoma b cells, 1 hour 30, trypan blue, read-out: LD 50 (concentration leading to a mortality of 50%)
red corpuscles [3] = experiment: Toxicity on red corpuscles (lysis), human; format: cell-based; details: 37° C., 1 hour 30, 90 min, 90 min, read-out: LD 50 (dose which leads to lysis in 50% of the erythrocytes)
Description: as §5, §6, §7, §8, §9, §10, §11, §12

[4] = Toxicity on nucleated cells, mice thymocytes; format: cell-based; details: mouse, thymocytes, 1 hour 30, trypan blue, read-out: LD 50 (concentration leading to a mortality of 50%)
Saccharomyces cerevisiae = experiment: Growth inhibition in liquid medium (Sabouraud broth); format: cell-based; details: Saccharomyces cerevisiae, 18 h, Sabouraud broth, 28° C., 18 hours; read-out: IC 50 (growth-inhibiting concentration of 50%)
Description: (§13) A.1 : Study of the antibiotic efficiency of AmB derivatives in liquid medium against different yeasts
(§14) The antibiotic efficiency was tested by the growth inhibition method in liquid medium (Sabouraud broth) in the presence of different concentrations of the derivatives studied.
(§15) A yeast suspension was cultivated in a broth in such a manner that about 1×10^2 cell/ml were obtained.
(§16) The tubes containing the different concentrations of antifungal substance were inoculated with the same amount of yeast cells, and were then incubated at 28° C. for 18 hours with stirring. For each concentration of antifungal substance, two identical tubes were prepared.
(§17) The inhibition of fungal growth corresponding to the different concentrations was evaluated for each molecule by spectrophotometry at 620 nm and expressed in percent with respect to a reference solution without antifungal substance.

Candida albicans = experiment: as above; format: cell-based; details: Sabouraud broth, 28° C., 18 hours, read-out: IC 50 (growth-inhibiting concentration of 50%)
Description: as §13, §14, §15, §16, §17

Pytirosporum orbiculare = experiment: as above; format: cell-based; details: Sabouraud broth, 28° C., 18 hours; read-out: IC 50 (growth-inhibiting concentration of 50%)
Description: as §13, §14, §15, §16, §17

Candida albicans B 2630 = experiment: as above; format: cell-based; details: B2630, Sabouraud broth, 28° C., 18 hours, read-out: IC 50 (growth-inhibiting concentration of 50%)
Description: as §13, §14, §15, §16, §17

Cryptoccocus neoformans = experiment: as above; format: cell-based; details: 18 h, Sabouraud broth, 28° C., 18 hours; read-out: IC 50 (growth-inhibiting concentration of 50%)
Description: as §13, §14, §15, §16, §17

[5] = Toxicity on nucleated cells, mice T lymph gland cells; format: cell-based; details: mouse, 1 hour 30, trypan blue, read-out: LD 50 (concentration leading to a mortality of 50%)
Description: (§18) B.2: Study of the toxicity on nucleated cells
(§19) The solutions of the amphotericine B derivatives are prepared similarly to those mentioned in paragraph B.1.
(§20) The cells are prepared by placing 20 ml of blood diluted to 1/2 with 0.9% NaCl into a tube together with 10 ml of Ficoll-hypaque, and the mixture is centrifuged at 2000 rpm for 30 minutes. The cell nuclei are recovered and washed twice with PBS buffer containing 5% of foetal calf serum.
(§21) The cells are prepared by suspending 1.14×10^6 cells/ml in RPMI 1640 containing 2.5% of foetal calf serum and by filling each well with 150 μl. 50 μl of each dilution of the derivatives are added and also one control (5% glucose solution).
(§22) The cells are then incubated in a steam cabinet at a CO2 concentration of 5% for 1 hour 30 at 37° C. or at ambient temperature.
(§23) To evaluate the toxicity of the derivatives, a cell count in the presence of trypan blue is made, and the LD 50 (concentration of the derivative leading to a mortality of 50%) is calculated with respect to the control (5% glucose solution) for each concentration of each derivative.

[6] = Toxicity on nucleated cells, mice B lymph gland cells; format: cell-based; details: mouse, 1 hour 30, trypan blue, read-out: LD 50 (concentration leading to a mortality of 50%)
Description: as §18, §19, §20, §21, §22, §23

[7] = Toxicity on nucleated cells, human thymocytes; format: cell-based; details: 1 hour 30, trypan blue, read-out: LD 50 (concentration leading to a mortality of 50%)
Description: as §18, §19, §20, §21, §22, §23

[8] = Toxicity on nucleated cells, human bone marrow; format: cell-based; details: 1 hour 30, trypan blue, read-out: LD 50 (concentration leading to a mortality of 50%)
Description: as §18, §19, §20, §21, §22, §23

PBL = experiment: Toxicity on nucleated cells, human PBL; format: cell-based; details: human PBL, 1 hour 30, trypan blue; 90 min; read-out: LD 50 (concentration leading to a mortality of 50%)
Description: as §18, §19, §20, §21, §22, §23

[9] = Solubility of the AmB derivatives; format: physicochemical; details: 5% glucose solution, ambient temperature, up to saturation; read-out: solubility (soluble up to a concentration of)
Description: C.2. Solubility of the AmB derivatives according to the present invention
AmB or the derivatives obtained are dissolved at ambient temperature in a 5% glucose solution up to saturation.

[10] = Toxicity on nucleated cells, X 63 mice lymphoma B; format: cell-based; details: mouse, x 63 lymphoma cells, 1 hour 30, trypan blue, read-out: LD 50 (concentration leading to a mortality of 50%)
DAUDI (human lymphoma B) = experiment: Toxicity on nucleated cells, DAUDI human lymphoma B; format: cell-based; details: 1 hour 30, trypan blue, 90 min, read-out: LD 50 (concentration leading to a mortality of 50%)

With `C[C@@H]1[C@H](O)[C@@H](C)/C=C/C=C/C=C/C=C/C=C/C=C/C=C/[C@H](O[C@@H]2O[C@H](C)[C@@H](O)[C@H](NCC(=O)[C@@H](O)[C@@H]3OC(c4ccccc4)OC[C@H]3O)[C@@H]2O)C[C@@H]2O[C@](O)(C[C@@H](O)C[C@@H](O)[C@H](O)CC[C@@H](O)C[C@@H](O)CC(=O)O[C@H]1C)C[C@H](O)[C@H]2C(=O)O` (stereo partly drawn) [AmB 20 F, 1-deoxy-1-amino-4,6-O-benzylidene-D-fructosyl-AmB] the “concentration giving a growth inhibition of 1 cm around a disc in solid medium” value (Aspergillus flavus) was 1.5 × 10^-4 molarity, the IC (1 cm inhibition zone) (Aspergillus fumigatus; Aspergillus fumigatus, read-out: concentration giving a growth inhibition of 1 cm around a disc in solid medium) was 200 µM and the CC50 (X 63 (mice lymphoma B)) was > 1000 µM. For the same compound, the HC50 (red corpuscles [1]) was 120 µM, the CC50 at 1.5 h [2] was > 1000 µM and the HC50 (red corpuscles [3]) was 200 µM. The CC50 at 1.5 h [4] was 8 µM, the IC50 (Saccharomyces cerevisiae) was 1.1 µM and the IC50 (Candida albicans; Candida albicans, 18 h) was 0.085 µM. It also gave an IC50 (Pytirosporum orbiculare) of 0.1 µM, an IC50 (Candida albicans B 2630) of 0.15 µM and an IC50 (Cryptoccocus neoformans) of 0.045 µM. The CC50 at 1.5 h [5] was 100 µM, the CC50 at 1.5 h [6] was 100 µM and the CC50 at 1.5 h [7] was > 300 µM. For the same compound, the CC50 at 1.5 h [8] was 1000 µM and the CC50 (PBL) was > 1000 µM.
In the case of `C[C@@H]1[C@H](O)[C@@H](C)/C=C/C=C/C=C/C=C/C=C/C=C/C=C/[C@H](O[C@@H]2O[C@H](C)[C@@H](O)[C@H](NCC(=O)[C@@H](O)[C@@H]3OC(c4ccccc4)OC[C@H]3O)[C@@H]2O)C[C@@H]2O[C@](O)(C[C@@H](O)C[C@@H](O)[C@H](O)CC[C@@H](O)C[C@@H](O)CC(=O)O[C@H]1C)C[C@H](O)[C@H]2C(=O)O` (stereo partly drawn) [AmB 20, 1-deoxy-1-amino-4,6-O-benzylidene-D-fructosyl-AmB], the solubility [9] is reported as 40 mg/mL (≈ 34.1 mM).
For `CC(=O)NC[C@H]1OC(O)(CN[C@@H]2[C@H](O)[C@H](O[C@H]3/C=C/C=C/C=C/C=C/C=C/C=C/C=C/[C@H](C)[C@@H](O)[C@@H](C)[C@H](C)OC(=O)C[C@H](O)C[C@H](O)CC[C@@H](O)[C@H](O)C[C@H](O)C[C@]4(O)C[C@H](O)[C@@H](C(=O)O)[C@H](C3)O4)O[C@H](C)[C@H]2O)[C@@H](O)[C@@H]1O` (stereo partly drawn) [AmB 23 F, 6-deoxy-6-N-acetyl-1-deoxy-1-aminofructosyl-AmB], the IC (1 cm inhibition zone) (Aspergillus flavus; Aspergillus flavus, read-out: concentration giving a growth inhibition of 1 cm around a disc in solid medium) was 600 µM, the “concentration giving a growth inhibition of 1 cm around a disc in solid medium” value (Aspergillus fumigatus) was 2 × 10^-4 molarity and the CC50 at 1.5 h [10] was > 1000 µM. For the same compound, the HC50 (red corpuscles [1]) was 12 µM, the CC50 (DAUDI (human lymphoma B)) was > 1000 µM and the HC50 (red corpuscles [3]) was 50 µM. The CC50 at 1.5 h [4] was 3 µM, the IC50 (Saccharomyces cerevisiae) was 1.6 µM and the IC50 (Candida albicans) was 0.4 µM. For the same compound, the IC50 (Pytirosporum orbiculare) was 0.076 µM, the IC50 (Cryptoccocus neoformans) was 0.15 µM and the CC50 (PBL) was 80 µM.
